Experiments:
[1] = OPDA assay in gastric acid-like low pH environment; type: physicochemical; details: pH between 1.4 and 1.6 with hydrochloric acid, hydrogen peroxide, 900 minutes; compared to normal condition; FIG. 3
Procedure: OPDA assay was used to confirm whether the vitamin C oxidation delay effect of aptamin C320 was maintained in a low pH environment similar to gastric acid in order to confirm that the effect of the substance was not reduced or eliminated by the pH environment in the stomach when ingested orally.
Thereafter, hydrogen peroxide was added to prepare an oxidation condition, and at this time, the pH was adjusted to be between 1.4 and 1.6 using hydrochloric acid, and oxidation of L-ascorbic acid was measured by adding an o-phenylenediamine (OPDA), which is a fluorescent dye. The degree of DHA production can be quantitatively analyzed by measuring the amount of fluorescence from DHA-OPDA generated by the reaction of DHA, an oxide of L-ascorbic acid, with OPDA. Under the above conditions, the fluorescence amount of DHA-OPDA was measured every 2 minutes for a total of 900 minutes.

[2] = OPDA assay of vitamin C oxidation delay; type: biochemical; details: L-ascorbic acid 0.1%, aptamer 0.001%, hydrogen peroxide, 900 minutes; compared with C332 and other 20 mer aptamers; FIG. 2
Procedure: In this case, the L-ascorbic acid was mixed at a ratio of 0.1% and the aptamer was mixed at 0.001%. Thereafter, hydrogen peroxide was added to prepare an oxidation condition, and then oxidation of L-ascorbic acid was measured by adding o-phenylenediamine (OPDA), a fluorescent dye. The degree of DHA production may be quantitatively analyzed by measuring the amount of fluorescence from DHA-OPDA generated by the reaction of DHA, an oxide of L-ascorbic acid, with OPDA. Under the above conditions, the amount of fluorescence of DHA-OPDA was measured every 2 minutes for a total of 900 minutes.

## aptamin C320: 20 mer DNA aptamer, SEQ ID NO: 1, GCCAGTCTCGCGGTGGCGGC, delays oxidation of vitamin C (DNA, backbone and methylation of C not given here)
[1]
  maintenance of vitamin C oxidation delay effect in acid condition: maintained without significantly decreasing in acid condition
[2]
  vitamin C oxidation delay effect (DHA-OPDA fluorescence): delays the oxidation of vitamin C to the highest extent

From patent publication US20260166003A1, “NOVEL APTAMER, AND COMPOSITION FOR COGNITIVE FUNCTION IMPROVEMENT AND ANTI-AGING COMPRISING APTAMER AS ACTIVE INGREDIENT” (NEXMOS CO., LTD, priority 2021, published 2026)
